Experimental data taken from publication PMC11190223, “Identification of sulfakinin receptor regulating feeding behavior and hemolymph trehalose homeostasis in the silkworm, Bombyx mori” (Scientific Reports, 2024).
Entries after “also recorded” stand apart in the source; their conditions may differ. Where no end group is shown, it is not given here. [ ]: non-standard residue; d: D form. sY = N[C@@H](Cc1ccc(OS(=O)(=O)O)cc1)C(=O)O

Tests used:
DSK-R1 (CCKLR-17D3) = conditions: cited from earlier work
Source text: Insect SKs mediate their effects via G protein-coupled receptors (GPCRs) located on the cell surface membrane. The Drosophila SK receptor (DSK-R1, also known as CCKLR-17D3) emerged as the first cloned and characterized receptor for insect SKs, displaying high affinity for tyrosine-sulfated SK (sSK) and low affinity for nonsulfated SK (nsSK)[21]. Another receptor, CCKLR-17D1, identified in Drosophila, exclusively responds to sSKs, underscoring the critical role of the sulfated tyrosine residue in SKs for receptor interaction and activity. This specificity for sSKs was also observed in the b ...

BNGR-A9 [1] = test: CRE-driven luciferase reporter assay, BNGR-A9; type: cell-based, Bombyx mori; conditions: for Activation of BNGR-A9 (CRE-driven luciferase activity): 1 μM peptide, with or without forskolin (5 μM); for Activation of BNGR-A9 (CRE-driven luciferase activity) / EC50: 4 h, at least three independent experiments; for EC50: dose-response
Source text: (§1) The entire coding region of BNGR-A9 (NM_001134272.1) was obtained by PCR and subsequently cloned into pEGFP-N1 and pCMV-Flag vectors using the primers listed in Table S1. The Flag-BNGR-A9 construct was generated for functional assays, including CRE-luciferase, calcium mobilization, and ERK phosphorylation assays, while BNGR-A9-EGFP was created for receptor visualization purposes. Additionally, for expression in the BmN cell system, the BNGR-A9 gene was inserted into the pIZT/V5-His vector. All constructs were validated by DNA sequencing.
(§2) HEK293 cells were cultured with Dulbecco’s Modified Eagle’s Medium (Gibco, NY, USA) supplied with 10% Fetal bovine serum (Gibco, NY, USA) in a 37 °C humidified incubator containing 5% CO2. BmN cells were maintained in TC 100 insect medium (AppliChem, Darmstadt, Germany) supplied with 10% Fetal bovine serum in a 28 °C incubator. Both HEK293 and BmN cells were transfected with X-tremeGENE (Roche, Mannheim, Germany) according to the manufacturer’s instruction.
HEK293 and BmN cells were transfected with the different Bombyx receptors (Flag-BNGR-A9, -A24, -A32, or A33 for HEK293 cells, and pIZT-BNGR-A9, -A24, -A32, or A33 for BmN cells) along with the corresponding CRE-reporter plasmid. When cell confluence reached 90–95%, they were treated with various concentrations of Bombyx mori neuropeptides, with or without forskolin. Following a 4-h incubation period, cells were lysed, and luciferase activities were determined using a firefly luciferase kit (Beyotime, Shanghai, China).
(§3) Data analysis was conducted using GraphPad Prism (San Diego, CA), with results presented as mean ± SEM. Statistical significance was assessed through Student’s t-test or two-way ANOVA with multiple comparisons, with p values below 0.05 denoted as significant (*p < 0.05, **p < 0.01, ***p < 0.001). Dose–response curves were generated via non-linear curve fitting. Adobe Photoshop was used to process images, ensuring uniform brightness and contrast settings across all conditions. All images and data provided represent findings from a minimum of three independent experiments.

[2] = system: ERK phosphorylation in silkworm brains; test: ERK phosphorylation (western blot), silkworm larval brains ex vivo; design: species or system Bombyx mori; conditions: FR900359 1 μM, 30 min; 100 nM BmsSK; silkworm larval brains
Method: HEK293 cells with Flag-BNGR-A9 were exposed to 100 nM BmsSK for different durations and then lysed using RIPA buffer (Beyotime, China). For ex vivo assays, brains from 5th instar silkworm larvae were treated with BmsSK (100 nM) for 1, 2, or 8 h, either with a pre-treatment of Gαq inhibitor FR900359 for 30 min or without it. After treatment, samples were lysed, homogenized, and their protein concentrations were determined with a BCA protein kit (Takara, Japan). For western blot analysis, equal amounts of protein lysate were used. Protein expression was analyzed using specific primary antibodies: rabbit monoclonal antibodies for total and phosphorylated ERK from Cell Signaling Technology (MA, USA).

BNGR-A9 [3] = test: Fura-2 AM-based Ca^2+ mobilization assay, BNGR-A9; type: cell-based, Bombyx mori; conditions: for Effect of Gαq/PLC inhibitor on BmsSK-triggered Ca^2+ mobilization: FR900359 1 μM or U73122 5 μM
Source text: as §1, §2
To monitor the changes of intracellular calcium, Fura-2 AM (Dojindo, Kumamoto, Japan) was utilized as the calcium indicator, following the methodology outlined in a previous study. Briefly, HEK293 cells stably expressing Flag-BNGR-A9 were exposed to various concentrations of Bombyx mori neuropeptides and measured using a fluorescence spectrometer (Tecan Infinite 200 PRO). Calcium levels were determined by the ratio of fluorescence excitation at 340 nm to that at 380 nm. If necessary, cells were pre-treated with U73122, FR900359, or KT5720 for 30 min prior to the initiation of the experiment. For assays involving BmN cells expressing pIZT-BNGR-A9, the procedures were conducted at 28 °C, and HBSS was replaced with HBM (Hepes-Buffered Medium: 140 mM NaCl, 5 mM KCl, 1 mM MgCl2, 1.2 mM Na2HPO4, 5 mM NaHCO3, 10 mM glucose, and 20 mM HEPES–NaOH, CaCl2 (1 mM), pH 6.2).
as §3

BNGR-A9 [4] = test: cAMP ELISA in BNGR-A9-expressing HEK293 cells; type: cell-based, Bombyx mori; conditions: 1 μM, 15 min, IBMX pretreatment (300 μM, 1 h)
Method: 1. Measurement of cAMP accumulation
Cells were seeded in 24-well plates and incubated overnight. Prior to treatment, cells
were pre-treated with the phosphodiesterase inhibitor IBMX (300 μM) for 1 hour.
Subsequently, cells were treated with different Bombyx neuropeptides for 15 minutes.
The reaction was terminated by removing the medium, followed by the addition of
ice-cold PBS and a single wash. Cell lysis was performed, and cAMP formation was
assessed using a competitive binding technique based on an enzyme-linked
immunosorbent assay (ELISA) (Parameter cAMP assay, R&D, Minneapolis, USA)
following the manufacturer's instructions. The results were expressed as the fold
change in cAMP concentration compared to the control concentration in the
2. Determination of Glucose of hemolymph
Silkworm larvae were anesthetized by cooling on ice, after which hemolymph was
collected using a micropipette from an incision made at the abdominal leg.
Approximately 5 mg of phenylthiourea (to achieve a final concentration of 2.5% w/v)
was added to the hemolymph in a 1.5 ml Eppendorf tube to inhibit clotting.
Hemolymph samples from 10 insects were then centrifuged at 12,000 rpm for 10
minutes at 4 °C to sediment any particulates. The glucose concentration in the
hemolymph was determined using a glucose oxidase-peroxidase kit (Shanghai […]
by stimulation with 1μM BmnsSK or BmsSK for 15 min, and the cAMP level was determined […]

BNGR-A9 [5] = test: IP3 ELISA in BNGR-A9-expressing HEK293 cells; type: cell-based, Bombyx mori; conditions: 1 μM, 1 h
Method: Figure 6 Bombyx sulfated-sulfakinin mediated activation of BNGR-A9 via Gαq signaling pathway. (A and B) Effects of Gαq inhibitor FR900359 (1 μM) on the CRE-driven luciferase activities in BNGR-A9 expressing HEK293 (A) and BmN (B) cells. BNGR-A9 stable transfected cells were pretreated with FR900359 (1 μM) for 30 min and challenged with 100 nM BmsSK for 4 h. (C) Accumulation of IP3 in HEK293 cells expressing BNGR-A9 in response to Bombyx neuropeptides was assessed. Cells were pre-treated with serum-free DMEM for 1 h, followed by stimulation with 1 μM of the indicated Bombyx neuropeptides for 1 h. The level of IP3 in the supernatant was then determined using the IP3 immunoassay detection kit. (D, E) Effects of Gαq/PLC inhibitors on Flag-BNGR-A9 mediated increase of intracellular Ca^2+ level. Flag-BNGR-A9 expressing HEK293 (D) and BmN (E) cells were pretreated with Gαq inhibitorFR900359 (1 μM), U73122 (5 μM) for 30 min, and incubated with Fura-2 AM for 30 min, followed by challenging with 100 nM BmsSK. (F, G) effects of protein kinase A (PKA) inhibitor KT5720 on BmsSK initiated Ca^2+ in Flag-BNGR-A9-expressing cells. […] After 30 min incubation with Fura-2 AM, the cells were treated with 100 nM BmsSK, and detected with a fluorescence spectrometer. […] Data were analyzed by using a Student’s t-test (*p < 0.05; **p < 0.01). […]

[6] = molecular target: T1, Flag-BNGR-A9 (Bombyx mori neuropeptide G protein-coupled receptor A9) expressed in HEK293 cells (Bombyx mori) (UniProt B3XXM2)
T1 sequence: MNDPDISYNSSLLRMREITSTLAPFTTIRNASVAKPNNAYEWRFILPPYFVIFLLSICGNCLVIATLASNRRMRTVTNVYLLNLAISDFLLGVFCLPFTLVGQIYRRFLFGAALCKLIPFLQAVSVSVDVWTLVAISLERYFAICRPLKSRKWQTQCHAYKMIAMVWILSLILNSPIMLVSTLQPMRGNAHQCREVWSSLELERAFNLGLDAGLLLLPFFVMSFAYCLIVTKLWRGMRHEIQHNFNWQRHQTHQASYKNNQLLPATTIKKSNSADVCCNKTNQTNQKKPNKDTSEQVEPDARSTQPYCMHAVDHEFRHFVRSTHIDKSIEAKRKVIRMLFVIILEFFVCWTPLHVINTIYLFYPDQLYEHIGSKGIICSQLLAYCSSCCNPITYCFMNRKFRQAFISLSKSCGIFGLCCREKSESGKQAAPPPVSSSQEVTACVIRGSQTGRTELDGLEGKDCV

[7] = molecular target: T2, BNGR-A9 expressed in BmN cells (pIZT-BNGR-A9) (Bombyx mori) (UniProt B3XXM2)
T2 sequence: T1 sequence

[8] = 30 min pretreatment, 100 nM BmsSK, HEK293 and BmN cells
[9] = CRE-driven luciferase, HEK293 and BmN cells

For “nsSK: nonsulfated SK, on Drosophila SK receptor (GDDTFDDYGHLRF-NH2)”, the “Affinity for DSK-R1” value (DSK-R1 (CCKLR-17D3)) is given as “low affinity”.

In the case of “sSK: tyrosine-sulfated SK, on Drosophila SK receptor (GDDTFDD[sY]GHLRF-NH2; N-terminus assumed; SMILES CC(C)C[C@H](NC(=O)[C@H](Cc1c[nH]cn1)NC(=O)CNC(=O)[C@H](Cc1ccc(OS(=O)(=O)O)cc1)NC(=O)[C@H](CC(=O)O)NC(=O)[C@H](CC(=O)O)NC(=O)[C@H](Cc1ccccc1)NC(=O)[C@@H](NC(=O)[C@H](CC(=O)O)NC(=O)[C@H](CC(=O)O)NC(=O)CN)[C@@H](C)O)C(=O)N[C@@H](CCCNC(=N)N)C(=O)N[C@@H](Cc1ccccc1)C(N)=O)”, the “Affinity for DSK-R1” value (DSK-R1 (CCKLR-17D3)) is listed as “high affinity”.

In the case of neuropeptide F [reference compound], the “Activation of BNGR-A9 (CRE-driven luciferase activity)” value (BNGR-A9 [1]; HEK293 and BmN cells) is reported as “did not significantly activate”.

In the case of FR900359 [reference compound], the “Effect of inhibitor on BmsSK-induced ERK phosphorylation” value [2] is reported as “inhibited” and the “Effect of Gαq/PLC inhibitor on BmsSK-triggered Ca^2+ mobilization” value (BNGR-A9 [3]; [8]) is reported as “completely blocked; also recorded: completely inhibited”.

In the case of “GDDTFDD^8YGHLRF-NH2 [BmnsSK, Bombyx mori Non-sulfated-sulfakinin, synthetic; nonsulfated version of GDDTFDD^8YGHLRF-NH2]”, the EC50 (BNGR-A9 [1]; BmN cells stably expressing BNGR-A9) is reported as 125 nM, the “Activation efficacy relative to BmsSK” value (BNGR-A9 [1]; [9]) is reported as “less than 30%” and the “Agonist type at BNGR-A9” value (BNGR-A9 [1]; [9]) is reported as “partial agonist”. For the same molecule, the “Activation of BNGR-A9 (CRE-driven luciferase activity)” value (BNGR-A9 [1]; HEK293 and BmN cells) was “could activate BNGR-A9”, the EC50 (BNGR-A9 [1]; HEK293 cells stably expressing BNGR-A9) was 119 nM and the “Intracellular cAMP level” value (BNGR-A9 [4]) was “remained unchanged”. The “Ca^2+ response” value (BNGR-A9 [3]; 1 μM peptide, Fura-2 AM, BNGR-A9-expressing HEK293 and BmN cells, three independent experiments) was “triggered responses in BNGR-A9-expressing cells” and the “Intracellular IP3 level” value (BNGR-A9 [5]) was “significant elevation”.

In the case of `CCCCCCOC(=O)[C@]1(O)C[C@@H]2O[C@@]1(C)n1c3ccccc3c3c4c(c5c6ccccc6n2c5c31)C(=O)NC4` [KT5720, reference compound], the “Effect of PKA inhibitor on BmsSK-induced Ca^2+ response” value (BNGR-A9 [3]; KT5720 10 μM, 30 min pretreatment, 100 nM BmsSK, HEK293 and BmN cells) is reported as “did not affect”.

With `COc1ccc2c(c1)CC[C@@H]1[C@@H]2CC[C@]2(C)[C@@H](NCCCCCCN3C(=O)C=CC3=O)CC[C@@H]12` [U73122, reference compound] the “Effect of Gαq/PLC inhibitor on BmsSK-triggered Ca^2+ mobilization” value (BNGR-A9 [3]; [8]) was “completely blocked”.

In the case of GDDTFDDYGHLRF-NH2 [Bombyx mori Non-sulfated-sulfakinin], the CRE-driven luciferase reporter, activation efficacy relative to BmsSK, HEK293 cells [6] is reported as < 30 % of BmsSK, the CRE-driven luciferase reporter, dose-response, HEK293 cells stably expressing BNGR-A9 [6] is reported as 119 nM and the CRE-driven luciferase reporter, activation efficacy relative to BmsSK, BmN cells [7] is reported as < 30 % of BmsSK. For the same molecule, the CRE-driven luciferase reporter, dose-response, BmN cells stably expressing BNGR-A9 [7] was 125 nM.
